Assays:
[1] = system: vascular remodeling caused by PAH; conditions: rat models; cited from earlier work
NAMPT = target: T1, NAMPT (Homo sapiens, UniProt P43490); experiment: CycLex NAMPT Colorimetric Assay; format: biochemical; conditions: for IC50: CycLex NAMPT Colorimetric Assay Kit, read-out: NAMPT Inhibition IC50
T1 construct: purchased MBL International Corporation (CycLex NAMPT Colorimetric Assay Kit Ver.2)
Procedure: The ability of the compounds of the disclosure to inhibit NAMPT was determined using the CycLex NAMPT Colorimetric Assay Kit Ver.2 by MBL International Corporation.
The assay detects NAMPT activity in recombinant NAMPT or endogenous NAMPT immunoprecipiated from cell lysates according to the scheme shown in FIG. 3. In this method, NAMPT converts nicotinamide to nicotinamide mononucleotide (“NMN”). Subsequently, nicotinamide mononucleotide adenylyltransferase 1 (“NMNAT1”) converts NMN to NAD^+. Resultant NAD^+ can be measured by enzyme cycling reaction using alcohol dehydrogenase (“ADH”), diaphorase and WST-1.

[2] = system: human pulmonary artery endothelial cells (hPAECs); experiment: BrdU Assay (proliferation), hPAEC; format: cell-based; conditions: dose response, FIG. 6
Procedure: (§1) The effect of the compounds disclosed herein on the viability, proliferation, and apoptosis of human pulmonary artery endothelial cells (“hPAECs,”) and human pulmonary artery smooth muscle cells (“hPASMCs”) was determined using the PrestoBlue Assay (viability), CYQuant Direct or BrdU Assay (proliferation) or Tunel Assay (apoptosis), as described below.
(§2) HPAECs (1×10^4 cells/well) or HPASMCs (2.5×10^3 cells/well) were seeded in 96-well plates for 24 h in full-serum tissue culture medium. The full medium was removed prior to treatment with a NAMPT inhibitor prepared in medium containing 0.1% serum. NAMPT inhibitors were solubilized in 100% DMSO, unless otherwise indicated, prior to preparation of the dose response curve in 100% DMSO. The treatment dose response curve was diluted in 0.1% serum tissue culture medium and administered to cells for 24 h. DMSO diluted in the same medium was used as the vehicle control. Cell viability was measured according to the manufacturer's protocol by adding the PrestoBlue Cell Viability Reagent (ThermoFisher Scientific, #A13261) to cells for 20 min at 37° C. in a tissue culture incubator, followed by reading fluorescence at ex560/em590. Cell proliferation was measured, either in the same wells or in separate experiments, by adding the CyQuant Direct Confirmation Reagent (ThermoFisher Scientific, #C35011) for 1 h at 37° C. in a tissue culture incubator, followed by reading fluorescence at ex485/em538. Proliferation was also measured, in separate experiments, using the BrdU Cell Proliferation Assay (Calbiochem, #QIA58). After treatment with a NAMPT inhibitor for 24 h, BrdU was added to the cells in the presence of the inhibitor, for an additional 24 h and BrdU incorporation was detected according to the manufacturer's protocol. Apoptosis was analyzed by seeding cells (1×10^5 cells/well) in 6-well plates for 24 h in full-serum medium, followed by treatment with a NAMPT inhibitor for 24 h in full-serum medium. Tunel staining and detection was performed using the Tunel Assay Kit (Abcam, #ab66110) according to the manufacturer's protocol.

[3] = system: human pulmonary artery smooth muscle cells (hPASMCs); experiment: BrdU Assay (proliferation), hPASMC; format: cell-based; conditions: Homo sapiens
Procedure: as §1, §2

[4] = system: human pulmonary artery smooth muscle cells (hPASMCs); experiment: PrestoBlue Assay (viability), hPASMC; format: cell-based; conditions: dose response, FIG. 8
Procedure: as §1, §2

[5] = Solubility (2.5% v/v DMSO/water); format: physicochemical
[6] = system: human pulmonary artery smooth muscle cells (hPASMCs); experiment: CyQUANT Direct Assay (proliferation), hPASMC; format: cell-based; conditions: dose response, FIG. 9
Procedure: as §1, §2

T1 sequence (P43490 whole entry): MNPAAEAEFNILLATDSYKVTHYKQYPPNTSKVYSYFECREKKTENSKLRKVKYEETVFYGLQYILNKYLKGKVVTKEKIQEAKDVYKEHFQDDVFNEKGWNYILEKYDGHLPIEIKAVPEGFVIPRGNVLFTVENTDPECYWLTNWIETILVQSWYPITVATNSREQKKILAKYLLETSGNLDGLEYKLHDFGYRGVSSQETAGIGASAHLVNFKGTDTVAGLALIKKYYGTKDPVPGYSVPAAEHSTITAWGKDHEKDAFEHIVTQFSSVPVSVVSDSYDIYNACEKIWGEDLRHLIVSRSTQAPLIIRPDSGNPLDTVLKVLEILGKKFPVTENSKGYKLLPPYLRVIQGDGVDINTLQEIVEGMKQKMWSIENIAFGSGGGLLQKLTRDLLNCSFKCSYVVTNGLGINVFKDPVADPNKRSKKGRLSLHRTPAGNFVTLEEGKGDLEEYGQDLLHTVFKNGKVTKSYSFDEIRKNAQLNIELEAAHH

Row | SMILES | vascular remodeling caused by PAH [1] | IC50 (NAMPT) [nM] | effect on HPAEC proliferation (BrdU assay) [2] | IC50 [3] [µM] | inhibition at 10 µM (NAMPT; 10 μM) [%] | effect on HPASMC viability [4] | Solubility (2.5% v/v DMSO/water) [5] | effect on HPASMC proliferation (CYQuant Direct assay) [6]
1 | N#CN=C(NCCCCCCOc1ccc(Cl)cc1)Nc1ccncc1 [CHS-828] | prevent and reverse | – | – | – | – | – | – | –
2 | CC[Si]1(CC)c2ccccc2N(C(=O)CCCCCNC(=O)/C=C/c2cccnc2)C1C (stereo not drawn) [DGMS-RAR-5] | – | 11 | dose-dependently decrease cell proliferation | 102 | – | – | – | –
3 | CC[Si]1(CC)c2ccccc2N(C(=O)CCCCCNC(=O)/C=C/c2cccnc2)C1C.Cl (stereo not drawn) [DGMS-RAR-5•HCl] | – | 23 | – | – | 98 | dose-dependently decrease cell viability | Good | dose-dependently decrease cell proliferation
